Experimental data reported in US6387947B1, “Antimicrobial cosmetic compositions” (E-L Management Corp., priority 1997, dated 2002).

Key:
[1] = test system: mycobacteria; conditions: U.S. Pat. No. 5,387,605; cited from earlier work
[2] = test system: Pseudomonas; experiment: microbial challenge of nonionic oil-in-water emulsion, pool 2; type: cell-based; conditions: 0.375% in emulsion
[3] = test system: Pseudomonas; experiment: as above; type: cell-based
Procedure: (§1) A nonionic oil-in-water emulsion is prepared containing 0.473% 3-furan carboxylic acid. The formulation is divided into five portions, each one getting an inoculation at day 0, and a reinoculation after three weeks, of one of the following microbial cultures: (1)Enterics; (2) Pseudomonas; (3)Staphylococcus; (4)Yeast; and (5)Mold. The concentration of microbes in each individual formulation is calculated on the day of the inoculation, and then again calculated on day 2, and at the end of one, two, three (pre-reinoculation) and four weeks, at a variety of pH values. These are also compared with formulations containing 2-furan carboxylic acid and an identical series of microbes, and an acid pH control emulsion without a furan carboxylic acid added. All numbers, other than those listed as “<10”, are log base 10; thus, for example, “6.6” is equivalent to the presence of […] bacteria. Entries of <10 indicate less than 10 colony forming units, the lowest level of detection.

[4] = test system: Mold; experiment: microbial challenge of nonionic oil-in-water emulsion, pool 5; type: cell-based; conditions: for concentration of microbes: 0.375% in emulsion
Procedure: as §1

[5] = test system: Staphylococcus; experiment: microbial challenge of nonionic oil-in-water emulsion, pool 3; type: cell-based; conditions: for concentration of microbes: 0.375% in emulsion
Procedure: The formulation is divided into five portions, each one getting an inoculation at day 0, and a reinoculation after three weeks, of one of the following microbial cultures: (1)Enterics; (2) Pseudomonas; (3)Staphylococcus; (4)Yeast; and (5)Mold. The concentration of microbes in each individual formulation is calculated on the day of the inoculation, and then again calculated on day 2, and at the end of one, two, three (pre-reinoculation) and four weeks, at a variety of pH values. These are also compared with formulations containing 2-furan carboxylic acid and an identical series of microbes, and an acid pH control emulsion without a furan carboxylic acid added. All numbers, other than those listed as “<10”, are log base 10; thus, for example, “6.6” is equivalent to the presence of […] bacteria. Entries of <10 indicate less than 10 colony forming units, the lowest level of detection.

[6] = test system: PLA2 enzyme obtained from snake venom; conditions: assay concentrations 0.01, 0.1 and 1 mg/ml
Procedure: The enzyme reaction is accomplished in a cuvette containing […] of phosphate buffered saline. Fluorometric substrate NBD-C6-HPC is solubilized 1 mM in EtOH, and is diluted in the reaction mixture to yield a 10 μM final concentration. The assay is initiated with the addition of 0.001 units per μl of PLA2 enzyme obtained from snake venom. Enzyme activity is monitored either with or without the presence of potential inhibitors. […] Prior to enzyme addition, samples are measured fluorometrically at excitation 470 and emission 570 to determine background level of fluorescensce. Following enzyme addition, samples are monitored every 15 minutes over a 60 minute period.

[7] = test system: lymphocyte adhesion to endothelial cells; experiment: inhibition of lymphocyte adhesion to endothelial cells; type: cell-based, human
Procedure: Endothelial cells are grown to confluence and washed thoroughly with basal media prior to the experiment to remove all fetal calf serum. The test compounds are then added to the endothelial culture well and incubated for 2 hours. IL-1β is added to stimulated expression of adhesion molecules on the endothelial cells before lymphocytes are added. Lymphocytes are isolated from blood collected from adult human subjects and added to the endothelial culture wells. PHA is added to stimulate adhesion molecule expression in the lymphocytes and the cultures incubated overnight. After a brief washing procedure, cells are incubated with Rose Bengal, and the number of adherent cells assessed by measuring the absorbance at 570 nm.

[8] = test system: Enterics; experiment: microbial challenge of nonionic oil-in-water emulsion, pool 1; type: cell-based
Procedure: as §1

[9] = test system: Yeast; experiment: microbial challenge of nonionic oil-in-water emulsion, pool 4; type: cell-based; conditions: for concentration of microbes: 0.375% in emulsion
Procedure: as §1

[10] = test system: Yeast; experiment: as above; type: cell-based; conditions: 0.375% in emulsion
[11] = test system: Enterics; experiment: microbial challenge of nonionic oil-in-water emulsion, pool 1; type: cell-based; conditions: 0.375% in emulsion
[12] = antiirritant effect against Balsam of Peru on ventral forearms of volunteers; type: in vivo, human; conditions: 0.1% in hydroalcohol 1:1, applied twenty minutes before Balsam of Peru; Minolta Chromameter; seven volunteers
Procedure: Seven volunteers with a history of skin sensitivity to Balsam of Peru are chosen for the study.
The test compounds are applied to the ventral forearms of panelists. The material is allowed to absorb for twenty minutes and then Balsam of Peru, an irritant is applied on the test sites. Skin irritation is measured in terms of increase in skin redness. The degree of redness is measured with a Minolta Chromameter and compared with the controls, the positive control being skin treated with Balsam of Peru alone, and the negative control being a skin site treated with 10% cola solution(a known antiirritant), and challenged like the test products.

O=C(O)c1ccco1 [2-furan carboxylic acid]
antimicrobial activity against mycobacteria, in words [1]: particularly effective
concentration of microbes ([2]; pH 3.0, Week 1): <10 colony forming units
concentration of microbes ([2]; pH 3.0, Week 3): <10 colony forming units
concentration of microbes ([2]; pH 3.0, Week 4): <10 colony forming units
concentration of microbes ([2]; pH 4.0, Day 2): <10 colony forming units
concentration of microbes ([2]; pH 4.0, Week 3): <10 colony forming units
concentration of microbes ([2]; pH 4.0, Week 4): <10 colony forming units
concentration of microbes ([2]; pH 5.0, Day 2): >6 log base 10
concentration of microbes ([2]; pH 5.0, Week 2): <10 colony forming units
concentration of microbes ([2]; pH 5.0, Week 3): <10 colony forming units
antimicrobial activity against Pseudomonas, in words [3]: does exhibit inhibition
antimicrobial activity against Mold, in words [4]: very poor level of activity
concentration of microbes ([4]; pH 3.0, Day 0): 5.2 log base 10
concentration of microbes ([4]; pH 3.0, Day 2): <10 colony forming units
concentration of microbes ([4]; pH 3.0, Week 1): <10 colony forming units
concentration of microbes ([4]; pH 3.0, Week 2): <10 colony forming units
concentration of microbes ([4]; pH 3.0, Week 3): <10 colony forming units
concentration of microbes ([4]; pH 3.0, Week 4): <10 colony forming units
concentration of microbes ([4]; pH 4.0, Day 0): 5.2 log base 10
concentration of microbes ([4]; pH 4.0, Day 2): 1.6 log base 10
concentration of microbes ([4]; pH 4.0, Week 1): <10 colony forming units
concentration of microbes ([4]; pH 4.0, Week 2): <10 colony forming units
concentration of microbes ([4]; pH 4.0, Week 3): <10 colony forming units
concentration of microbes ([4]; pH 4.0, Week 4): <10 colony forming units
concentration of microbes ([4]; pH 5.0, Day 0): 5.2 log base 10
concentration of microbes ([4]; pH 5.0, Day 2): 5.2 log base 10
concentration of microbes ([4]; pH 5.0, Week 1): 5.2 log base 10
concentration of microbes ([4]; pH 5.0, Week 2): 5.2 log base 10
concentration of microbes ([4]; pH 5.0, Week 3): 3.0 log base 10
concentration of microbes ([4]; pH 5.0, Week 4): >5 log base 10
antimicrobial activity against Staphylococcus, in words [5]: does exhibit inhibition
concentration of microbes ([5]; pH 3.0, Day 0): 6.3 log base 10
concentration of microbes ([5]; pH 3.0, Day 2): <10 colony forming units
concentration of microbes ([5]; pH 3.0, Week 1): <10 colony forming units
concentration of microbes ([5]; pH 3.0, Week 2): <10 colony forming units
concentration of microbes ([5]; pH 3.0, Week 3): <10 colony forming units
concentration of microbes ([5]; pH 3.0, Week 4): <10 colony forming units
concentration of microbes ([5]; pH 4.0, Day 0): 6.3 log base 10
concentration of microbes ([5]; pH 4.0, Day 2): <10 colony forming units
concentration of microbes ([5]; pH 4.0, Week 1): <10 colony forming units
concentration of microbes ([5]; pH 4.0, Week 2): <10 colony forming units
concentration of microbes ([5]; pH 4.0, Week 3): <10 colony forming units
concentration of microbes ([5]; pH 4.0, Week 4): <10 colony forming units
concentration of microbes ([5]; pH 5.0, Day 0): 6.3 log base 10
concentration of microbes ([5]; pH 5.0, Day 2): 2.9 log base 10
concentration of microbes ([5]; pH 5.0, Week 1): <10 colony forming units
concentration of microbes ([5]; pH 5.0, Week 2): <10 colony forming units
concentration of microbes ([5]; pH 5.0, Week 3): <10 colony forming units
concentration of microbes ([5]; pH 5.0, Week 4): <10 colony forming units
PLA2 inhibition, in words [6]: capable of inhibiting the activity
EC-50 of PLA2 inhibition ([6]; calculated from linear fit): 0.5 mg/mL
inhibition of adhesion of polymorphonuclear leukocytes (PMNs) to activated endothelial cells, in words [7]: ability to inhibit the adhesion
inhibition of lymphocyte adhesion, in words (absorbance at 570 nm, Rose Bengal) ([7]; concentrations of 0.5% and 1%, IL-1β and PHA stimulated): very potent inhibitors of lymphocyte adhesion
antimicrobial activity against Enterics, in words [8]: does exhibit inhibition
antimicrobial activity against yeast, in words [9]: very poor level of activity
concentration of microbes ([9]; pH 3.0, Day 0): 5.7 log base 10
concentration of microbes ([9]; pH 3.0, Day 2): <10 colony forming units
concentration of microbes ([9]; pH 3.0, Week 1): <10 colony forming units
concentration of microbes ([9]; pH 3.0, Week 3): <10 colony forming units
concentration of microbes ([9]; pH 3.0, Week 4): <10 colony forming units
concentration of microbes ([9]; pH 4.0, Day 0): 5.7 log base 10
concentration of microbes ([9]; pH 4.0, Day 2): 3.7 log base 10
concentration of microbes ([9]; pH 4.0, Week 2): <10 colony forming units
concentration of microbes ([9]; pH 4.0, Week 3): <10 colony forming units
concentration of microbes ([9]; pH 4.0, Week 4): >5.7 log base 10
concentration of microbes ([9]; pH 5.0, Day 0): 5.7 log base 10
concentration of microbes ([9]; pH 5.0, Day 2): >5.7 log base 10
concentration of microbes ([9]; pH 5.0, Week 1): >5.7 log base 10
concentration of microbes ([9]; pH 5.0, Week 4): >5.7 log base 10
concentration of microbes ([10]; pH 3.0, Week 2): <10 colony forming units
concentration of microbes ([10]; pH 4.0, Week 1): 3.7 log base 10
concentration of microbes ([10]; pH 5.0, Week 2): >5.7 log base 10
concentration of microbes ([10]; pH 5.0, Week 3): >5.7 log base 10
concentration of microbes ([11]; pH 3.0, Day 0): 6.6 log base 10
concentration of microbes ([11]; pH 3.0, Week 1): <10 colony forming units
concentration of microbes ([11]; pH 3.0, Week 2): <10 colony forming units
concentration of microbes ([11]; pH 3.0, Week 3): <10 colony forming units
concentration of microbes ([11]; pH 3.0, Week 4): <10 colony forming units
concentration of microbes ([11]; pH 4.0, Day 0): 6.6 log base 10
concentration of microbes ([11]; pH 4.0, Week 1): <10 colony forming units
concentration of microbes ([11]; pH 4.0, Week 4): <10 colony forming units
concentration of microbes ([11]; pH 5.0, Day 0): 6.6 log base 10
concentration of microbes ([11]; pH 5.0, Day 2): >6 log base 10
concentration of microbes ([11]; pH 5.0, Week 1): >6 log base 10
concentration of microbes ([11]; pH 5.0, Week 3): <10 colony forming units
concentration of microbes ([11]; pH 5.0, Week 4): <10 colony forming units
effectiveness in preventing the onset of irritation (reduction of skin redness) [12]: 49%
